# In patent US20250276983A1, “COMPOUNDS AND METHODS FOR MODULATING HER2” (IAMBIC THERAPEUTICS, INC., priority 2022, published 2025):
# pIC50: −log10 of the molar value.
# Assays:
# wtERBB2 = wtERBB2 (Homo sapiens (Human), UniProt P04626); experiment: HotSpot radiometric kinase activity assay, wtERBB2; type: biochemical; settings: 30 nM wtERBB2, 10 μM 33P-ATP, 20 min preincubation, 2 hours, read-out: HER2 WT IC50
# Description: (§1) The purpose of the wtERBB2, ERBB2-A775_G776insYVMA (ERBB2YVMA), wtEGFR biochemical assay was to evaluate the inhibition (% inhibition and IC50 values) of the small molecule inhibitors by using the “HotSpot” radiometric kinase activity assay. HotSpot assays monitor the […] of kinase substrate by the radioactive gamma phosphate of adenosine triphosphate (33P-ATP) during biochemical reactions. HotSpot assays was performed in steps upon completion of the kinase reaction: deposition of a reaction mixture aliquot onto P81 ion exchange paper, extensive washing of the aforementioned P81 paper using phosphoric acid to remove unbound radiolabeled 33P-ATP from the P81 paper, and finally visualization and quantification of the dried P81 paper utilizing a phosphoimager. […] Typical reaction solutions (10 μL final reaction volume) contained the following buffer conditions: 20 mM Hepes (pH 7.5), 10 mM MgCl2, 1 mM EGTA, 0.01% Brij35, 0.02 mg/mL BSA, 0.1 mM Na3VO4, 2 mM DTT, 1% DMSO. The assay was primed by preparing a fresh 0.2 mg/mL solution of pEY (Sigma Cat: P7244) substrate in the reaction buffer and supplementing that solution with […] of MnCl2 as substrate cofactor (Sigma Cat: M9522). The kinase of interest was then added to the solution at the appropriate concentration (30 nM wtERBB2 from, or 20 nM ERBB2YVMA, or 4 nM wtEGFR) and gently mixed prior to delivery of compound in 100% DMSO by acoustic dispensing (Beckman Echo550). Compound, Kinase, and substrate were allowed to incubate for 20 min at room temperature prior to the initiation of the reaction by addition of 33P-ATP (PerkinElmer Cat: NEG602, final conc 10 μM). […] IC50 determinations were made from a plot of kinase activity as a function of inhibitor concentration fit to the 4-parameter IC50 equation with the enzyme concentration held constant using GraphPad Prism (San Diego).
# wtEGFR = wtEGFR (Homo sapiens (Human), UniProt P00533); experiment: HotSpot radiometric kinase activity assay, wtEGFR; type: biochemical; settings: 4 nM wtEGFR, 10 μM 33P-ATP, 20 min preincubation, 2 hours, read-out: EGFR WT IC50
# Chain of wtEGFR (P00533 25-1210): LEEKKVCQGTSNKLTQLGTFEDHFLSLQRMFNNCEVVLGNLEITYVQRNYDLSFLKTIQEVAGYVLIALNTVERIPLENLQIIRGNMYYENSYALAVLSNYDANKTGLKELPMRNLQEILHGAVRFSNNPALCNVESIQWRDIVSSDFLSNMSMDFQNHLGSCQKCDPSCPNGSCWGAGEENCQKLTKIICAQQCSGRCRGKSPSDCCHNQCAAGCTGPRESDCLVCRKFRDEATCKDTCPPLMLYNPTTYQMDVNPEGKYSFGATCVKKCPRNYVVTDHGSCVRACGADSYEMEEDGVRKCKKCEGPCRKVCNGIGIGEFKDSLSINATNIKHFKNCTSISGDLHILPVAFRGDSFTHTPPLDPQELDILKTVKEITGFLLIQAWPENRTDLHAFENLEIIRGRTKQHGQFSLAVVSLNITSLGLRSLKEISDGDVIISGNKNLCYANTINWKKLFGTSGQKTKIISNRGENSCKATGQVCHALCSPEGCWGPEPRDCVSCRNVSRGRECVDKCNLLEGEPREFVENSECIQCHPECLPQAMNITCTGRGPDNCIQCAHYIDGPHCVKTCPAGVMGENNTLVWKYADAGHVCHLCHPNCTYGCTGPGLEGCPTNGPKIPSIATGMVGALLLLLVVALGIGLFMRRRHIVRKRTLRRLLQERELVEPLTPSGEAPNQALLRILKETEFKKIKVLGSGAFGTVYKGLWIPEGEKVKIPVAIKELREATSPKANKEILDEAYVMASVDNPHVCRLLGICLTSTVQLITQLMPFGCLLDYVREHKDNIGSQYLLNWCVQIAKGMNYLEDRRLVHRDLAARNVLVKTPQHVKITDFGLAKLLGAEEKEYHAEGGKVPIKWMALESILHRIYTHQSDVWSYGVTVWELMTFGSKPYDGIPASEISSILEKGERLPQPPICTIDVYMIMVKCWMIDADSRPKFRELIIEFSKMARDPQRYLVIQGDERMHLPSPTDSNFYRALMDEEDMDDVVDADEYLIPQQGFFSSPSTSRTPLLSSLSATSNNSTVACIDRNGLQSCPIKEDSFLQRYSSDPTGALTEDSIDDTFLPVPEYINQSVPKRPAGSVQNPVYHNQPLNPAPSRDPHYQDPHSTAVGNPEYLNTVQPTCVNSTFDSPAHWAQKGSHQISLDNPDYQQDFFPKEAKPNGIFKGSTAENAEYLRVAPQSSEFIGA
# Description: as §1
# BaF3_HER2YVMA cells = experiment: Cell growth inhibition assay, BaF3_HER2YVMA; type: cell-based; settings: 72 h, BaF3_HER2YVMA cells, 3 days treatment, CellTiterGlo 2.0; read-out: HER2-YVMA IC50 (nM), cell growth inhibition
# BaF3_HER2WT cells = experiment: Cell growth inhibition assay, BaF3_HER2WT; type: cell-based; settings: 72 h, 3 days treatment, CellTiterGlo 2.0, read-out: HER2 WT IC50 (nM), cell growth inhibition
# BaF3_EGFRWT cells = experiment: Cell growth inhibition assay, BaF3_EGFRWT; type: cell-based; settings: 72 h, 80 ng/mL recombinant human EGF, 3 days treatment, CellTiterGlo 2.0, read-out: EGFR WT IC50 (nM), cell growth inhibition
# Chain of wtERBB2 (P04626 23-1255): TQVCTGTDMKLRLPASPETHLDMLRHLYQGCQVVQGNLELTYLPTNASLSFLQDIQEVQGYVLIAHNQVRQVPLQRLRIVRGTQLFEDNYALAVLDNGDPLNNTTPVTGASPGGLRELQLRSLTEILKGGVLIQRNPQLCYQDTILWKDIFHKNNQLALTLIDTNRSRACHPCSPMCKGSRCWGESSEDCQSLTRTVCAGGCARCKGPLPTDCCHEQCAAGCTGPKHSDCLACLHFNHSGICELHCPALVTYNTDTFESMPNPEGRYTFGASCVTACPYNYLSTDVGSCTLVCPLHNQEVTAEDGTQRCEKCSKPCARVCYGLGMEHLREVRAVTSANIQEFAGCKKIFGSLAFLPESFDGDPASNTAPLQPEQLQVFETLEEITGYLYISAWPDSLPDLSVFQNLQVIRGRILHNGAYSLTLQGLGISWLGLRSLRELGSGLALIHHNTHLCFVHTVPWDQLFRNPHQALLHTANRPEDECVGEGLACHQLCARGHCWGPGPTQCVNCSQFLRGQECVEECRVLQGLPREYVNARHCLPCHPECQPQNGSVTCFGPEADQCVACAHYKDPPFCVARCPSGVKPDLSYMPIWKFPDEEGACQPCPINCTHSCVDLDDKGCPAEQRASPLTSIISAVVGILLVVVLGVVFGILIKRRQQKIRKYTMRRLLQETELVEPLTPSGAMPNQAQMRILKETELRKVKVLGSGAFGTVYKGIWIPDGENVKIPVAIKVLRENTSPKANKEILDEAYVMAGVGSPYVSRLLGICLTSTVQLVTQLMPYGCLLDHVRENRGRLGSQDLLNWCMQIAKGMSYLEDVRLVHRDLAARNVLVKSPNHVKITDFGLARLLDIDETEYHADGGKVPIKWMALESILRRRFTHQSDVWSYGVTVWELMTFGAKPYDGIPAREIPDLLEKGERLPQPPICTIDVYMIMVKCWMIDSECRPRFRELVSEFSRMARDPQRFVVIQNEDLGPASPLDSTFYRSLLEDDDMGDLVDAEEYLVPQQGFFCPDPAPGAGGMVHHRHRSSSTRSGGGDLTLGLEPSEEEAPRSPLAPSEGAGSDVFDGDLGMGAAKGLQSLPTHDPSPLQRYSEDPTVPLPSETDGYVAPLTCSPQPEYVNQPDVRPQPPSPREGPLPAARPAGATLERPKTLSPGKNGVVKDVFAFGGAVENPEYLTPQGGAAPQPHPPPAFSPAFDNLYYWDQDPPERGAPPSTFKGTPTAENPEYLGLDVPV
Structure (SMILES),pIC50 (wtERBB2),pIC50 (wtEGFR),IC50 (BaF3_HER2YVMA cells) [nM],IC50 (BaF3_HER2WT cells) [nM],IC50 (BaF3_EGFRWT cells) [nM]
"C=CC(=O)N1CCC[C@H](c2ccn3ncnc(Nc4ccc(Oc5ccn6ncnc6c5)c(C)c4)c23)CC1 [Example 112, (S)-1-(4-(4-((4-([1,2,4]triazolo[1,5-a]pyridin-7-yloxy)-3-methylphenyl)amino)pyrrolo[2,1-f][1,2,4]triazin-5-yl)azepan-1-yl)prop-2-en-1-one]",> 6.70,> 6.70,,,
"C=CC(=O)N1CCC[C@@H](c2ccn3ncnc(Nc4ccc(Oc5ccn6ncnc6c5)c(C)c4)c23)CC1 (single isomer, unassigned) [Example 111]",> 6.70,> 6.70,,,
"Cc1cc(Nc2ncnn3ccc(C4CC5(C4)CN(C(=O)/C=C/CN(C)C)C5)c23)ccc1Oc1ccn2ncnc2c1 [Example 95, (E)-1-(6-(4-((4-([1,2,4]triazolo[1,5-a]pyridin-7-yloxy)-3-methylphenyl)amino)pyrrolo[2,1-f][1,2,4]triazin-5-yl)-2-azaspiro[3.3]heptan-2-yl)-4-(dimethylamino)but-2-en-1-one]",> 6.70,,500 to 1500,200 to 500,1500 to 5000
"Cc1cc(Nc2ncnn3ccc(C4CN(C(=O)/C=C/CN5CCC5)C4)c23)ccc1Oc1ccn2ncnc2c1 [Example 102, (E)-1-(3-(4-((4-([1,2,4]triazolo[1,5-a]pyridin-7-yloxy)-3-methylphenyl)amino)pyrrolo[2,1-f][1,2,4]triazin-5-yl)azetidin-1-yl)-4-(azetidin-1-yl)but-2-en-1-one]",> 6.70,,1500 to 5000,500 to 1500,1500 to 5000
"Cc1cc(Nc2ncnn3ccc(N4CC5(CCN(C(=O)/C=C/CN(C)C)C5)C4)c23)ccc1Oc1ccn2ncnc2c1 [Example 156, (2E)-4-(dimethylamino)-1-(2-{4-[(3-methyl-4-{[1,2,4]triazolo[1,5-a]pyridin-7-yloxy}phenyl)amino]pyrrolo[2,1-f][1,2,4]triazin-5-yl}-2,6-diazaspiro[3.4]octan-6-yl)but-2-en-1-one]",> 6.70,,1500 to 5000,200 to 500,1500 to 5000
"Cc1cc(Nc2ncnn3ccc(C4CN(C(=O)/C=C/CN5CC(F)(F)C5)C4)c23)ccc1Oc1ccn2ncnc2c1 [Example 91, (E)-1-(3-(4-((4-([1,2,4]triazolo[1,5-a]pyridin-7-yloxy)-3-methylphenyl)amino)pyrrolo[2,1-f][1,2,4]-triazin-5-yl)azetidin-1-yl)-4-(3,3-difluoroazetidin-1-yl)but-2-en-1-one]",> 6.70,,500 to 1500,< 200,1500 to 5000
"Cc1cc(Nc2ncnn3ccc(C4CN(C(=O)/C=C/CN)C4)c23)ccc1Oc1ccn2ncnc2c1 [Example 87, (E)-1-(3-(4-((4-([1,2,4]triazolo[1,5-a]pyridin-7-yloxy)-3-methylphenyl)amino)pyrrolo[2,1-f][1,2,4]triazin-5-yl)azetidin-1-yl)-4-aminobut-2-en-1-one]",> 6.70,,1500 to 5000,1500 to 5000,1500 to 5000
"Cc1cc(Nc2ncnn3ccc(C4CCN(C(=O)CCCN(C)C)CC4)c23)ccc1Oc1ccn2ncnc2c1 [Example 23, 1-(4-(4-((4-([1,2,4]triazolo[1,5-a]pyridin-7-yloxy)-3-methylphenyl)amino)pyrrolo[2,1-f][1,2,4]triazin-5-yl)piperidin-1-yl)-4-(dimethylamino)butan-1-one]",> 6.70,,1500 to 5000,500 to 1500,1500 to 5000
"COC1CCN(C/C=C/C(=O)N2CCC(c3ccn4ncnc(Nc5ccc(Oc6ccc7c(c6)ncn7C)c(C)c5)c34)CC2)C1 (racemic) [Example 106, (E)-4-(3-methoxypyrrolidin-1-yl)-1-(4-(4-((3-methyl-4-((1-methyl-1H-benzo[d]imidazol-5-yl)oxy)phenyl)amino)pyrrolo[2,1-f][1,2,4]triazin-5-yl)piperidin-1-yl)but-2-en-1-one]",,> 6.70,,,1500 to 5000
"Cc1cc(Nc2ncnn3ccc(-c4cnn(CCNC(=O)/C=C/CN(C)C)c4)c23)ccc1Oc1ccn2ncnc2c1 [Example 103, (E)-N-(2-(4-(4-((4-([1,2,4]triazolo[1,5-a]pyridin-7-yloxy)-3-methylphenyl)amino)pyrrolo[2,1-f][1,2,4]triazin-5-yl)-1H-pyrazol-1-yl)ethyl)-4-(dimethylamino)but-2-enamide]",> 6.70,,1500 to 5000,1500 to 5000,1500 to 5000
"C=CC(=O)NC1CCN(C(=O)c2ccn3ncnc(Nc4ccc(Oc5ccn6ncnc6c5)c(C)c4)c23)CC1 [Example 5, N-(1-(4-((4-([1,2,4]triazolo[1,5-a]pyridin-7-yloxy)-3-methylphenyl)amino)pyrrolo[2,1-f][1,2,4]triazine-5-carbonyl)piperidin-4-yl)acrylamide]",> 6.70,,200 to 500,< 200,1500 to 5000
"Cc1cc(Nc2ncnn3ccc(C4CCCN(C(=O)/C=C/CN(C)C)C4)c23)ccc1Oc1ccn2ncnc2c1 (stereo not drawn) [Example 96, (E)-1-(3-(4-((4-([1,2,4]triazolo[1,5-a]pyridin-7-yloxy)-3-methylphenyl)amino)-pyrrolo-[2,1-f][1,2,4]-triazin-5-yl)piperidin-1-yl)-4-(dimethylamino)but-2-en-1-one]",> 6.70,,500 to 1500,< 200,1500 to 5000

# Continued, values first:
pIC50 (wtERBB2),pIC50 (wtEGFR),IC50 (BaF3_HER2YVMA cells) [nM],IC50 (BaF3_HER2WT cells) [nM],IC50 (BaF3_EGFRWT cells) [nM],Structure (SMILES)
> 6.70,> 6.70,,,,"Cc1cc(Nc2ncnn3ccc([C@@H]4CCCN(C(=O)/C=C/CN(C)C)CC4)c23)ccc1Oc1ccn2ncnc2c1 (single isomer, unassigned) [Example 109]"
> 6.70,,200 to 500,< 200,1500 to 5000,"C=CC(=O)N1CCC2(C1)CN(c1ccn3ncnc(Nc4ccc(Oc5ccn6ncnc6c5)c(C)c4)c13)C2 [Example 155, 1-(2-{4-[(3-methyl-4-{[1,2,4]triazolo[1,5-a]pyridin-7-yloxy}phenyl)amino]pyrrolo[2,1-f][1,2,4]triazin-5-yl}-2,6-diazaspiro[3.4]octan-6-yl)prop-2-en-1-one]"
> 6.70,,500 to 1500,200 to 500,1500 to 5000,"C=C(F)C(=O)N1CC(n2cc(-c3ccn4ncnc(Nc5ccc(Oc6ccn7ncnc7c6)c(C)c5)c34)cn2)C1 [Example 19, 1-(3-(4-(4-((4-([1,2,4]triazolo[1,5-a]pyridin-7-yloxy)-3-methylphenyl)amino)pyrrolo[2,1-f][1,2,4]triazin-5-yl)-1H-pyrazol-1-yl)azetidin-1-yl)-2-fluoroprop-2-en-1-one]"
> 6.70,,< 200,< 200,1500 to 5000,"C=CC(=O)NC1CN(c2ccn3ncnc(Nc4ccc(Oc5ccn6ncnc6c5)c(C)c4)c23)C1 [Example 14, N-(1-(4-((4-([1,2,4]triazolo[1,5-a]pyridin-7-yloxy)-3-methylphenyl)amino)pyrrolo[2,1-f][1,2,4]triazin-5-yl)azetidin-3-yl)acrylamide]"
> 6.70,,500 to 1500,200 to 500,1500 to 5000,"C=CC(=O)N1CC2(C1)CN(c1ccn3ncnc(Nc4ccc(Oc5ccn6ncnc6c5)c(C)c4)c13)C2 [Example 16, 1-(6-(4-((4-([1,2,4]triazolo[1,5-a]pyridin-7-yloxy)-3-methylphenyl)amino)pyrrolo[2,1-f][1,2,4]triazin-5-yl)-2,6-diazaspiro[3.3]heptan-2-yl)prop-2-en-1-one]"
> 6.70,> 6.70,,,,"Cc1cc(Nc2ncnn3ccc([C@@H]4CCN(C(=O)/C=C/CN(C)C)C4)c23)ccc1Oc1ccn2ncnc2c1 (single isomer, unassigned) [Example 99]"
> 6.70,,< 200,< 200,1500 to 5000,"Cc1cc(Nc2ncnn3ccc(N4CCN(C(=O)/C=C/CN(C)C)CC4)c23)ccc1Oc1ccn2ncnc2c1 [Example 22, (E)-1-(4-(4-((4-([1,2,4]triazolo[1,5-a]pyridin-7-yloxy)-3-methylphenyl)amino)pyrrolo[2,1-f][1,2,4]triazin-5-yl)piperazin-1-yl)-4-(dimethylamino)but-2-en-1-one]"
